Results from ChEMBL document CHEMBL1201862, “PubChem BioAssay data set” (2004).
Activity calls are given as the source filed them.

How the values were obtained:
Exodeoxyribonuclease V = target: T1, Exodeoxyribonuclease V (Escherichia coli (strain K12), UniProt P04993+P07648+P08394); experiment: RecBCD inhibition via phage-restricted bacterial growth – absorbance, V66 E. coli, mutant T4 phage, counter-screen for AddAB inhibitor project, dose response (AID 492957); assay type: functional, cell-based, Escherichia coli str. K-12 substr. MG1655
T1 sequence (P04993 whole entry): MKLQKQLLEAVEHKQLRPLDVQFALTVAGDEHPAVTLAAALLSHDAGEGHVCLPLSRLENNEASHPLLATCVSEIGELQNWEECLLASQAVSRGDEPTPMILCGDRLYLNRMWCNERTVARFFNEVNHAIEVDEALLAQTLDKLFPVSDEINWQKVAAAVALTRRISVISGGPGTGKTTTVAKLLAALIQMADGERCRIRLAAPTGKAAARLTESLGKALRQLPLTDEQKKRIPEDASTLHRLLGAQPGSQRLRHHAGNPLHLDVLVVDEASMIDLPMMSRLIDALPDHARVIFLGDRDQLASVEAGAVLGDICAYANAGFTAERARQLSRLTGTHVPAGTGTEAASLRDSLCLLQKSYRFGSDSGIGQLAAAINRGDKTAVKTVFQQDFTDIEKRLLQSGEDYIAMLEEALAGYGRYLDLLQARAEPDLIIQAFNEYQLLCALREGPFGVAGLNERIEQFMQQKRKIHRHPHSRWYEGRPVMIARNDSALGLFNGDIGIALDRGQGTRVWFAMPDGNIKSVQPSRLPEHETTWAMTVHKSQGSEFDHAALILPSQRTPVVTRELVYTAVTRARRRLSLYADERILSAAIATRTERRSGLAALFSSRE
T1 sequence (P07648 whole entry): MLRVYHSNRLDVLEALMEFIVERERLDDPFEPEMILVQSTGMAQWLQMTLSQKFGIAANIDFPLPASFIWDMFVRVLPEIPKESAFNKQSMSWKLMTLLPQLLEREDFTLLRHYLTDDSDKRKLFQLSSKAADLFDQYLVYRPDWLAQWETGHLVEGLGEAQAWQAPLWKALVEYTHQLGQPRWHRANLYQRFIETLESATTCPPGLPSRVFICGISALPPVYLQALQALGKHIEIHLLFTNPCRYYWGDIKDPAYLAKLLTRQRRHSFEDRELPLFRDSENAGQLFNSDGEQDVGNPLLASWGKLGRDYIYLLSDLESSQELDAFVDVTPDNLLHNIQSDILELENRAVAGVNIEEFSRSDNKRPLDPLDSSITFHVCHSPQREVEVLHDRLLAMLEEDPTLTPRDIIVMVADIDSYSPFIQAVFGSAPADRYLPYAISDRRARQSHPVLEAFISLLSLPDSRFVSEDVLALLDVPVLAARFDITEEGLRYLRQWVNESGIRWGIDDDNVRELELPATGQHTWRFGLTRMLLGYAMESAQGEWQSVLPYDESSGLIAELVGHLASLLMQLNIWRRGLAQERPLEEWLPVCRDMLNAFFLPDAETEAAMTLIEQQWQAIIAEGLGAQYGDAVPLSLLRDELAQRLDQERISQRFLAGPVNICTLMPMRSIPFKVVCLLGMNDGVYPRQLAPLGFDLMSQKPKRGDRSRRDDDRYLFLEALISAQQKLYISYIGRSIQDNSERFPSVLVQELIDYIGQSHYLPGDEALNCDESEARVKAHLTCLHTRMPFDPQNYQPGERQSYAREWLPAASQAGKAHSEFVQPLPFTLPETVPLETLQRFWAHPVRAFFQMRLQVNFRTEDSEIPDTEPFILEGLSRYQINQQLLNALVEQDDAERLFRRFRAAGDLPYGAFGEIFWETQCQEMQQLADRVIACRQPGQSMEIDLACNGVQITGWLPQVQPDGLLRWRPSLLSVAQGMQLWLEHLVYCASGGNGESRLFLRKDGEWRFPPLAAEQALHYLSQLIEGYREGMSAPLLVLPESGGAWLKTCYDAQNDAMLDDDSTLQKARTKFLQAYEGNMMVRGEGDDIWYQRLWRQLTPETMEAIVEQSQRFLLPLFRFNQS
T1 sequence (P08394 whole entry): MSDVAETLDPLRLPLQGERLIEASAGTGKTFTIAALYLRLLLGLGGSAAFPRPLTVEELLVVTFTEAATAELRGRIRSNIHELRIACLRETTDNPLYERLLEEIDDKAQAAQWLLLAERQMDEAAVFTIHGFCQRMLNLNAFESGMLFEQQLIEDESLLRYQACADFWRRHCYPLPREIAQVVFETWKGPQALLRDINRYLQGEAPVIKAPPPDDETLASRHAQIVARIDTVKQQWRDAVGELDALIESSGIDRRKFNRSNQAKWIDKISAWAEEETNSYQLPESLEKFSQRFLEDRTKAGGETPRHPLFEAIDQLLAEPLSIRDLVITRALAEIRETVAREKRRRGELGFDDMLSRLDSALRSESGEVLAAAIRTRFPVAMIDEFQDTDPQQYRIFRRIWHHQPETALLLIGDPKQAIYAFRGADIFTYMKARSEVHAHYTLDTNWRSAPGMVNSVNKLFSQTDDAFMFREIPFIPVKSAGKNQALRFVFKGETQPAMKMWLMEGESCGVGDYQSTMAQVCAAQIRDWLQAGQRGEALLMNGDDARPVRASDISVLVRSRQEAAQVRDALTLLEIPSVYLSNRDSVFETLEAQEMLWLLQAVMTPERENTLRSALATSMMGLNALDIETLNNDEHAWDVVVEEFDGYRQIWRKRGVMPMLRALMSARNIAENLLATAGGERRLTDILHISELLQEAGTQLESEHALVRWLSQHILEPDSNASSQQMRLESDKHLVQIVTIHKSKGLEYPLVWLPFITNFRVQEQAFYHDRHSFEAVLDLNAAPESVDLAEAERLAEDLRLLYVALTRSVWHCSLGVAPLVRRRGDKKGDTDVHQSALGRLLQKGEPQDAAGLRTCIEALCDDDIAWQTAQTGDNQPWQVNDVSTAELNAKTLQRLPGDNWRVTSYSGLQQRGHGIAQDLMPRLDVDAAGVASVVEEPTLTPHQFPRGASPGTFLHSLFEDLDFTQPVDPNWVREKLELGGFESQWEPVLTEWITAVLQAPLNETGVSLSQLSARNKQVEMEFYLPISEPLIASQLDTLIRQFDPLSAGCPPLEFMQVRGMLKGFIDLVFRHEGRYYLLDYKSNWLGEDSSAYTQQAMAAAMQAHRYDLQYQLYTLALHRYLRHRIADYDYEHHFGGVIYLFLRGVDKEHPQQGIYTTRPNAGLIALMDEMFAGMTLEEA

[1] = Counterscreen for AddAB inhibitors: absorbance-based bacterial cell-based high throughput dose response assay for inhibitors of bacterial viability. [Related pubchem assays (depositor defined):AID435030, AID449728, AID449731, AID488942, AID488955, AID488956]; assay type: functional
[2] = Luminescence Cell-Based Dose Retest to Confirm Inhibitors of Cancer Stem Cells. [Related pubchem assays (depositor defined):AID2717, AID2721]; assay type: functional; conditions: Homo sapiens
Vero [3] = experiment: cells; assay type: functional, cell-based; conditions: Chlorocebus sabaeus
Vero [4] = experiment: cells; assay type: functional; conditions: Chlorocebus sabaeus
HEK293 [5] = experiment: inhibition of NOD1-driven NF-kB reporter – cell-based, luminescence, uHTS, primary screen (AID 1578); assay type: functional; conditions: Homo sapiens
HEK293 [6] = experiment: cells; assay type: functional, cell-based; conditions: Homo sapiens
HEK293 [7] = experiment: cells; assay type: functional, cell-based; conditions: Homo sapiens; remark: listed apart in the source
HEK293 [8] = experiment: NOD2 signaling inhibitors in MDP-stimulated cells, cell-based, uHTS, luminescence (AID 2001); assay type: functional; conditions: Homo sapiens
[9] = target: T2, Heat shock factor protein 1 (Mus musculus, UniProt P38532); experiment: enhancement of HSF1-driven luciferase signal – cell-based, NIH3T3, luminescence, dose retest, confirmation (AID 435004); assay type: functional;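 note: stress induced by proteasome inhibitor MG132 added 30 min after compound; luciferase reporter driven by HSF1 response element in NIH3T3 cells; actives raise luminescence as potentiators of the MG132 stress response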
T2 sequence (P38532 whole entry): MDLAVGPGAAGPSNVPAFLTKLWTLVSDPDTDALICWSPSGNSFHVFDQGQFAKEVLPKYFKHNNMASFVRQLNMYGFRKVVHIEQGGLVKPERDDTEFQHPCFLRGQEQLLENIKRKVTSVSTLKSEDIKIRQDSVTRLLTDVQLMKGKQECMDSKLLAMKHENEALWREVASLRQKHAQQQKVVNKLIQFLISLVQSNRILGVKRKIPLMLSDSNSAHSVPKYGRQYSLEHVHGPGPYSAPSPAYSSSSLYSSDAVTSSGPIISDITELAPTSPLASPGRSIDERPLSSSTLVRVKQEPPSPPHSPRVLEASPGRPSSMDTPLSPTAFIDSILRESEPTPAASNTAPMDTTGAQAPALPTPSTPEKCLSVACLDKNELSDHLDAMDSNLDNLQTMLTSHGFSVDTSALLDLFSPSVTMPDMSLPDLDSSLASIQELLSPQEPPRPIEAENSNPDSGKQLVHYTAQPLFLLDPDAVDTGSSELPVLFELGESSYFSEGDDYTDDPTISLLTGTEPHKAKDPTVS

HeLa = experiment: ATP-based viability loss in HeLa cells – cell-based, CellTiter-Glo luminescence, cherry-pick samples, cytotoxicity control for MITF activator project, dose response (AID 540259); assay type: functional; conditions: Homo sapiens

Structure (SMILES): O=C1CCC(=O)N(O)CCCCCNC(=O)CCC(=O)N(O)CCCCCNC(=O)CCC(=O)N(O)CCCCCN1 [NOCARDAMINE]
- IC50 (Exodeoxyribonuclease V): > 119 µM (inactive)
- IC50 [1]: > 119 µM (inactive)

Structure (SMILES): C[C@]12CC[C@H](O)C[C@H]1CC[C@@H]1[C@@H]2CC[C@]2(C)[C@@H](C3=CC(=O)OC3)[C@@H](O)C[C@]12O [GITOXIGENIN]
- AC50 [2]: 2.58 µM (active)
- IC50 (Vero [3]): > 12.5 µM (active)
- CC50 (Vero [4]): 6.88 µM (active)

Structure (SMILES): C=C(C(=O)c1ccccc1)C(CC(=O)c1ccccc1)c1ccccc1 (stereo unspecified)
- EC50 (HEK293 [5]): 8.67 µM (active)
- IC50 (HEK293 [6]): 1.42 µM (active)
- IC50 (HEK293 [7]): > 20 µM (inactive)
- IC50 (HEK293 [8]): 4.04 µM (active)
- AC50 [2]: 2.07 µM (active)
- EC50 [9]: 7.91 µM (active)
- IC50 (Vero [3]): 21.4 µM (active)
- CC50 (Vero [4]): 21 µM (active)

Structure (SMILES): COc1ccc(-c2nn(-c3ccccc3)cc2C(=O)NC(=S)NNC(=O)c2ccncc2)cc1
- IC50 (Vero [3]): 16.6 µM (active)
- CC50 (Vero [4]): 16.4 µM (active)

Structure (SMILES): CC1(C)CN=c2s/c(=C\c3ccc(Cl)cc3)c(=O)n2C1
- AC50 (HeLa): 277 µM (active)
